{"source": "patent US20050239873A1", "about": "(priority 1999, published 2005)", "key": {"[1]": {"tested_on": "RPMI-8226 cells", "assay": "Metabolic studies: glucose depletion from media and intracellular pH", "assay_type": "cell-based, human", "experimental": "(§1) Cell survival was assayed by exclusion of propidium iodide (PI; 10 μg/ml) by unfixed cells. Annexin V-FITC (Pharmingen) or 3, 3′-dihexyloxacarbocyanine iodide (DiOC6(3); Molecular Probes) staining was analyzed together with PI to discriminate early apoptotic cells. Apoptotic cells were also measured as sub-G1 events among ethanol-fixed cells stained with 10 μg/ml PI. All cell samples were analyzed using a benchtop FACSCalibur™ (Becton Dickinson, San Jose, Calif.). Flow data were analyzed using MultiCycle AV software (Phoenix Flow Systems). For intracellular pH measurements, cell pellets were washed once and resuspended in 2 ml of HEPES-buffered medium (no phenol red and no serum). Carboxy-SNARF-1-AM (Molecular Probes, 1 mM stock in DMSO, stored at −20° C.) was added to a final concentration of 10 μM, and the cells were incubated for 30 min at 37° C. Following incubation with SNARF, cells were sedimented and the pellets were held on ice. Immediately before analysis, pellets were resuspended in […] (HBSS; experimental buffer) or high-[K+] buffer containing nigericin (calibration samples).\nThe analysis by flow cytometry (Becton Dickinson FACScan™) was done with excitation at 488 nm, and emission at 585 and 640 nm (corresponding to the H^+-bound and—free forms of carboxy-SNARF-1-AM, respectively). […]"}, "[2]": {"tested_on": "NB4, an acute promyelocytic cell line", "assay": "Propidium iodide exclusion cytotoxicity", "assay_type": "cell-based, human", "experimental": "as §1"}, "[3]": {"tested_on": "leukemia and lymphoma cell lines (DHL4, Daudi, Ramos, Molt4 and Jurkat)", "assay": "Propidium iodide exclusion cytotoxicity", "assay_type": "cell-based, human", "settings": "5 to about 20 μg/ml", "experimental": "as §1"}, "[4]": {"tested_on": "AML-12.Bcl-xL cells", "assay": "Sensitivity of non-tumorigenic liver cells to antimycin A", "assay_type": "cell-based, mouse", "settings": "vs AML-12 control transfectants", "excerpt": "The effects of BCl-xL over-expression on non-tumorigenic cells was also examined. […] Briefly, AML-12 cells were transfected as described above with pSFFV.Bcl-xL(sense) and pSFFV.neo. AML-12-pSFFV. Bcl-xL(sense) cells expressed approximately 3 to 4 fold higher BCl-xL protein levels than did AML-12 cells transfected with the control plasmid, pSFFV.neo, when assayed by Western blot analysis."}, "[5]": {"tested_on": "mitochondria from TABX2S cells", "assay": "Rhodamine 123 retention assay", "parameters": "species or system murine", "settings": "five minutes after adding", "experimental": "Rh-123 is a cationic lipid-soluble fluorescent dye that accumulates in mitochondria in proportion to the mitochondrial membrane potential. Mitochondria were isolated from TABX2S cells (over-expressing Bcl-xL) and from control cells, prepared as described in Example 2. The isolated mitochondria were loaded with Rh-123 by incubating with 10 μM Rh-123 for 30 minutes, washed and resuspended in buffer. […] Less than 40% of Rh-123 was retained in antimycin A-treated TABX2S mitochondria, compared with greater than 80% retained in control mitochondria."}, "[6]": {"tested_on": "TAMH cells that over-express Bcl-2", "assay": "Sensitivity of Bcl-2 over-expressing cells to antimycin A", "assay_type": "cell-based, murine", "settings": "vs control cells"}, "[7]": {"assay": "Stability in solution at pH 7.4 (no S9)", "assay_type": "physicochemical", "settings": "pH 7.4, absence of S9 proteins"}, "[8]": {"assay": "Binding to plasma proteins (ultrafiltration)", "assay_type": "in vitro ADME, dog", "settings": "dog, plasma, presence of NaF+EDTA, read-out: Protein binding, Dog", "experimental": "Solutions of 2-OMe antimycin A3 were diluted with plasma (dog or human) containing NaF+EDTA to final concentrations of 1.0 or 0.2 μg/ml. Controls were diluted with water to the same final concentrations. These preparations were incubated at 37° C. for 20 min, at which time portions were taken and placed in the sample reservoirs of Amicon Centrifree® ultrafiltration systems (Millipore Co., Bedford, Mass.). At 37° C., the filter systems were centrifuged until the reservoirs were dry. From each filtrate, portions were taken for analysis by HPLC. The amounts present were designated as “free drug” (F). The concentrations of the unfiltered solutions were also determined by triplicate analyses. This amount represented the “total drug” concentration (T). The percentage of 2-OMe antimycin A3 bound to plasma proteins was calculated by the following formula: % bound=((T−F)/T)×100\nSimilar experiments were performed for 2-OMe antimycin A3 in dog or rat plasma in the absence of NaF/EDTA."}, "[9]": {"tested_on": "mitochondria with normal levels of Bcl-xL expression", "assay": "JC-1 membrane potential of isolated mitochondria", "parameters": "species or system murine", "experimental": "Isolated mitochondria were loaded with JC-1 prior to treatment, and mitochondrial labeling was determined using FACS. […] Antimycin A-treated mitochondria with high levels of Bcl-xL had lower levels of JC-1 staining than parallel samples treated with CCCP. Uncoupled mitochondria still retain a significant Donnan potential because of trapped anionic species and it is likely that antimycin-induced PT and/or swelling of mitochondria led to a further reduction of this residual potential.\nAs observed for the parent compound, antimycin A3, mitochondria with normal levels of BCl-xL expression were not affected by the 2-methoxy analog."}}, "data": [{"compound": "2-methoxy antimycin A [2-OMeA]", "values": [{"measurement": "glycolysis (depletion of glucose from culture media, reduction in intracellular pH)", "setting": "[1]", "result": "stimulated glycolysis"}]}, {"compound": "antimycin A", "values": [{"measurement": "sensitivity (PI exclusion)", "setting": "[2]", "result": "modestly antimycin-sensitive"}, {"measurement": "sensitivity (PI exclusion)", "setting": "[3]", "result": "sensitive"}, {"measurement": "sensitivity to antimycin A", "setting": "[4]", "result": "increased sensitivity"}, {"measurement": "Rh-123 retained", "setting": "[5]", "result": "Less than 40%"}, {"measurement": "sensitivity to antimycin A", "setting": "[6]", "result": "more sensitive"}]}, {"compound": "CCCC[C@H]1C(=O)OC(C)[C@H](NC(=O)c2cccc(NC=O)c2OC)C(=O)O[C@@H](C)C1OC(=O)CC(C)C", "note": "(stereo partly drawn) [2-OMeA3, Antimycin A3 methyl ether]", "values": [{"measurement": "stability in solution", "setting": "[7]", "result": "not stable"}, {"measurement": "fraction unbound at 20 min, 1000 ng/ml", "setting": "[8]", "result": "< 0.01"}, {"measurement": "mitochondrial depolarization (JC-1)", "setting": "[9]", "result": "not affected"}]}]}
